Here are results for 16 compounds from ChEMBL document CHEMBL1152829, “2,3-Disubstituted 8-arylamino-3H-imidazo[4,5-g]quinazolines: a novel class of antitumor agents” (Eur J Med Chem, 2009).

Each structure is given as a SMILES string. Bounds are passed on as bounds.

One assay relates to K562. Briefly: Cytotoxicity against human K562 cells after 96 hrs by MTT assay. The assay is classed as functional, cell-based. The conditions noted are these: K562, 96 h. In general terms: Formazan colour is commonly taken as a measure of viable cells.
The subject of a further assay is MOLT-4. The experiment in a line: Cytotoxicity against human MOLT4 cells after 96 hrs by MTT assay. The assay is classed as functional, cell-based. To be noted: MOLT-4, 96 h.
For a further assay, the system named is MDA-MB-231. Briefly: Cytotoxicity against human MDA-MB-231 cells after 96 hrs by MTT assay. It counts as functional, cell-based. The conditions noted are these: MDA-MB-231, 96 h.
The next assay relates to PC-3. The experiment in a line: Cytotoxicity against human PC3 cells after 96 hrs by MTT assay. The assay is classed as functional, cell-based. The conditions noted are these: PC-3, 96 h.
The test system of a further assay is A549. Briefly: Cytotoxicity against human A549 cells after 96 hrs by MTT assay. It counts as functional, cell-based. To be noted: A549, 96 h.
The test system of assay [1] is A549 (Homo sapiens). The experiment in a line: Cell cycle arrest in human A549 cells assessed as accumulation at G2/M phase at 10 umol/L after 24 hrs by FACS relative to untreated control. (In general: In flow cytometry, cells or beads pass a laser one at a time.)
The test system of assay [2] is A549 (Homo sapiens). The experiment in a line: Cell cycle arrest in human A549 cells assessed as accumulation at S phase at 10 umol/L after 24 hrs by FACS relative to untreated control.
In assay [3] the test system is A549 (Homo sapiens). Briefly: Cell cycle arrest in human A549 cells assessed as accumulation at G0/G1 phase at 10 umol/L after 24 hrs by FACS relative to untreated control.

What is called IC50 is the concentration that inhibits the measured activity by half. For `CCCc1nc2cc3c(Nc4ccc(OC)cc4)ncnc3cc2n1CCCOCC`, the IC50 in the assay with K562 is greater than 100 µM; with MOLT-4, greater than 100 µM; in the assay with MDA-MB-231, greater than 100 µM; in the assay with PC-3 it was greater than 100 µM; with A549 it was 18.3 µM.
On to `COc1cc2ncnc(Nc3ccc(F)c(Cl)c3)c2cc1OCCCN1CCOCC1` [GEFITINIB], for which, in the assay on A549 (Homo sapiens) [1], the “Percentage of cells in G2/M phase” value was determined as 4.64%. Also, the “percent of cells in S phase” value with A549 (Homo sapiens) [2] is reported as 19.24%. Also, the Activity in the assay on A549 (Homo sapiens) [3] is 76.12%.
`COc1ccc(Nc2ncnc3cc4c(cc23)nc(C(C)C)n4C2CCCCC2)cc1`: the IC50 was found to be 19.3 µM in the assay on K562; 7.69 µM with MOLT-4; 21.1 µM with MDA-MB-231; 23 µM with PC-3; 7.31 µM with A549.
Taken in the same sequence, the figures for `CCCc1nc2cc3c(Nc4ccc(OC)c(OC)c4)ncnc3cc2n1CCCOC` were 14.3 µM, 10.9 µM, 20.6 µM, 24.6 µM and 11.5 µM.
In the case of `CCOCCCn1c(C(C)C)nc2cc3c(Nc4ccc(OC)cc4)ncnc3cc21`, the “Percentage of cells in G2/M phase” value in the assay on A549 (Homo sapiens) [1] is given as 3.4%. The half-inhibitory concentration (IC50) in the assay on K562 was 5.18 µM; in the assay on MOLT-4, greater than 100 µM; in the assay with MDA-MB-231 it was greater than 100 µM; in the assay on PC-3, greater than 100 µM; in the assay on A549, 4.59 µM. For the same compound, the “percent of cells in S phase” value with A549 (Homo sapiens) [2] turned out to be 16.22%. The Activity with A549 (Homo sapiens) [3] is reported as 80.38%.
`CCOCCCn1c(CC(C)C)nc2cc3c(Nc4ccc(OC)cc4)ncnc3cc21`: the “Percentage of cells in G2/M phase” value in the assay with A549 (Homo sapiens) [1] was 3.12%. Also, the IC50 with K562 is 14.4 µM; with MOLT-4, greater than 100 µM; with MDA-MB-231, greater than 100 µM; in the assay on PC-3 it was greater than 100 µM; with A549, 2.81 µM. For the same compound, in the assay on A549 (Homo sapiens) [2], the “percent of cells in S phase” value amounted to 15.41%. For the same compound, the Activity in the assay with A549 (Homo sapiens) [3] is listed as 81.47%.
Turning to `CCCCn1c(C(C)C)nc2cc3c(Nc4ccc(C)cc4)ncnc3cc21`, the IC50 is greater than 100 µM in the assay with K562; greater than 100 µM with MOLT-4; 10.7 µM with MDA-MB-231; 24.8 µM in the assay on PC-3; 12.1 µM in the assay with A549.
Consider `CCOCCCn1c(Cc2ccccc2)nc2cc3c(Nc4ccc(OC)cc4)ncnc3cc21`, for which the half-maximal inhibitory concentration (IC50) is 12.9 µM with K562; greater than 100 µM in the assay on MOLT-4; 15.5 µM in the assay with MDA-MB-231; greater than 100 µM in the assay on PC-3; 22.1 µM with A549.
On to `COCCCn1c(C(C)C)nc2cc3c(Nc4ccc(OC)cc4)ncnc3cc21`, for which the IC50 with K562 is greater than 100 µM; in the assay on MOLT-4 it was greater than 100 µM; in the assay with MDA-MB-231, greater than 100 µM; with PC-3 it was greater than 100 µM; in the assay on A549, 15.8 µM.
For the compound `COc1ccc(Nc2ncnc3cc4c(cc23)nc(C(C)C)n4C(C)C)cc1`, the IC50 is greater than 100 µM in the assay on K562; greater than 100 µM in the assay with MOLT-4; 35.7 µM in the assay with MDA-MB-231; greater than 100 µM in the assay on PC-3; 6.26 µM in the assay with A549.
With `CC(C)c1nc2cc3c(Nc4ccccc4)ncnc3cc2n1C1CCCCC1`, the 50% inhibitory concentration (IC50) was 17.4 µM with K562; 2.83 µM in the assay on MOLT-4; greater than 100 µM with MDA-MB-231; 24.7 µM in the assay on PC-3; 22.1 µM in the assay on A549.
Taken in the same sequence, the figures for `CCCCn1c(C(C)C)nc2cc3c(Nc4ccc(OC)c(OC)c4)ncnc3cc21` were 18.5 µM, 6.63 µM, 20 µM, greater than 100 µM and 5.58 µM.
Taken in the same sequence, the figures for `CCOCCCn1c(CC)nc2cc3c(Nc4ccc(OC)cc4)ncnc3cc21` were greater than 100 µM, greater than 100 µM, greater than 100 µM, greater than 100 µM and 6.05 µM.
`CCCCn1c(C(C)C)nc2cc3c(Nc4ccc(F)cc4)ncnc3cc21`: the “Percentage of cells in G2/M phase” value with A549 (Homo sapiens) [1] is given as 2.99%. In addition, the half-maximal inhibitory concentration (IC50) with K562 stood at 5.55 µM; in the assay on MOLT-4 it was 11.4 µM; in the assay with MDA-MB-231, 20 µM; in the assay with PC-3 it was 9.74 µM; in the assay on A549, 4.25 µM. In addition, the “percent of cells in S phase” value in the assay with A549 (Homo sapiens) [2] is 10.73%. Besides, in the assay on A549 (Homo sapiens) [3], the Activity is listed as 86.28%.
Turning to `CCCCCCc1nc2cc3c(Nc4ccc(OC)cc4)ncnc3cc2n1CCCOCC`, the IC50 was 40.9 µM with K562; greater than 100 µM in the assay with MOLT-4; greater than 100 µM in the assay with MDA-MB-231; greater than 100 µM with PC-3; 39 µM in the assay on A549.
`CCCCn1c(C(C)C)nc2cc3c(Nc4ccc(OC)cc4)ncnc3cc21`: the IC50 was greater than 100 µM in the assay with K562; 11.5 µM in the assay with MOLT-4; greater than 100 µM in the assay on MDA-MB-231; 18.9 µM in the assay on PC-3; 8.29 µM with A549.
